Read-outs that look alike come from different tables or passages of the source.

In one data set the target is T1, tubulin (Sus scrofa, UniProt P02550+P02554).
T1 construct: The procedure used is modified from Shelanski et al; from tissue
Description: Tubulin assembly assay (tubulin binding). In kind it is biochemical, porcine.

Data set [1] deals with HUVECs. Description: Cell cycle analysis, G2/M phase, PI staining and flow cytometry. The data set is classed as cell-based, human. The settings on record: 24 h treatment. From the text:
Proliferating cells are constantly dividing to produce daughter cells. The most obvious cellular structure that requires duplication and division is the cell nucleus where DNA, cell's genetic material is present. During a cell cycle there are changes in the DNA content and thus there are different cycle stages including G0, G1, S, G2 and M (mitosis). The G0 stage of the cycle is a subset of G1 where the cells are quiescent and have limited cellular functions. Cells remain in the G1 portion of the cycle when are not in a process of cell division and thus G1 phase is the most predominant phase of the cycle appearing as the largest peak. In addition, during the G1 phase synthesis of many RNA and protein molecules is taking place which are necessary for DNA synthesis. G2 phase is a period for repair of any damaged DNA and for reorganisation of the DNA structure before entering the M phase. Cell cycle abnormalities could be a sign of cell damage, for example DNA damage causes interruption of the cell cycle at certain checkpoints such as the spindle assembly checkpoint (SAC) to prevent carcinogenesis.
The mitotic spindle is composed of microtubules which together with regulatory proteins assist in the activity of properly segregating replicated chromosomes. It is well established that treatment of cells with tubulin polymerization inhibitors causes a G2/M phase arrest of the cell cycle and thus an observable increased DNA content at that stage.
For this reason, cell cycle analysis was carried out using propidium iodide (PI) staining. The first protocol was presented by Krishan in 1975 [6]. The first step involves permeabilisation of the cells' plasma membrane by fixating the cells in ethanol in order for the fluorescent DNA dye to pass through the membrane and into the cells. Ribonuclease A (RNase A) was used to eliminate any RNA present inside the cells in order to avoid creating artefacts that could affect the results. PI was used for the staining of the cells' DNA content; however other fluorescent dyes can be used instead, such as DAPI and Hoechst 33342.
Flow cytometry was used to quantify the DNA contents of the cells. This is a technique which was first introduced by Fulwyler which examines and counts cells or other microscopic particles by suspending them in a stream of fluid and passing them by an electronic detection apparatus. Cells had to pass through the flow cytometer's laser where a fluorescence pulse was generated and it correlated with the amount of DNA dye present inside the cells. […]
Cell cycle arrest at the G2/M phase was examined by PI-staining. […] Cell suspension was kept at 4° C. until ready for analysis. […] Samples were analyzed using a Beckman Coulter (Dako) 2-laser CyAn ADP analyser provided by the Department of Biochemistry, TCD. […]

In data set [2] the target is T2, APN enzyme present on HUVECs (Homo sapiens, UniProt P15144).
T2 construct: The presence of APN-expres sing cells replaced the step of the addition of the actual APN enzyme; host or cells: HUVECs
Description: APN cell-based assay, HUVECs. The procedure:
(§1) To further investigate the APN inhibitory effect of the hybrids the APN cell-based assay was carried out as previously described using both HUVECs and PC-3 cells. In order to exclude any possible cytotoxic effects of the tubulin component of the hybrids that could interfere with the outcome of the results, it was necessary to perform cytotoxicity assays. For this purpose, the MTT assay was used as previously described; however the duration of compounds' incubation was modified to 2 h in order to correlate with the incubation period of APN cell-based assay. The presence of APN-expres sing cells replaced the step of the addition of the actual APN enzyme and the rest of the protocol remained the same. The release of the resulting product p-nitroaniline was measured spectrophotometrically at 405 nm and the level of APN present […] the cells was directly related to the intensity of the colour absorbance.
(§2) HUVECs/PC-3 cells' surface APN activity was estimated spectrophotometrically using L-leucine-p-nitroanilide as an APN substrate. 1×10^6 cells/ml ([…]) were seeded in 96-well plate and incubated overnight at 37° C. The following day cell medium was replaced by various concentrations of compounds diluted in HEPES buffer (100 μl). […] L-leucine-p-nitroanilide (50 μl) was added to each well to give a final concentration of 2 mM. Following 2 h incubation at 37° C., absorbance was measured at 405 nm using a FLUOstar OPTIMA microplate reader (BMG labtech). Each compound concentration was tested in quadruplicate and each experiment was performed at three independent times. The percentage APN inhibition was determined using the formula below and where appropriate, IC50 values were obtained.
(§3) % APN inhibition=100−[(mean Abs of test compound)/(mean Abs of control)]*100

Data set [3] addresses T3, APN enzyme present on PC-3 cells (Homo sapiens, UniProt P15144).
T3 construct: PC-3 cell line was selected due to its high expression of APN; host or cells: PC-3
Description: APN cell-based assay, PC-3 cells. The procedure: as §1, §2, §3

Data set [4] concerns HUVECs. Description: MTT cytotoxicity assay, HUVECs. The data set is classed as cell-based, human. On the procedure: as §1
Cell growth inhibition was assessed using the MTT assay. 5×10^4 cells/ml HUVECs or PC-3 cells (180 μl) were inoculated into each well of a 96-well plate and incubated overnight at 37° C. Compounds or control solutions (20 μl) were added into each well and the plates were incubated for 72 h. CA-4 was used as a positive control. […] The percentage growth inhibition was determined using the formula below and the results were expressed in terms of IC50 values.

Where [5] appears, read: HUVEC, read-out: percentage APN inhibition.

T2 sequence (P15144 whole entry): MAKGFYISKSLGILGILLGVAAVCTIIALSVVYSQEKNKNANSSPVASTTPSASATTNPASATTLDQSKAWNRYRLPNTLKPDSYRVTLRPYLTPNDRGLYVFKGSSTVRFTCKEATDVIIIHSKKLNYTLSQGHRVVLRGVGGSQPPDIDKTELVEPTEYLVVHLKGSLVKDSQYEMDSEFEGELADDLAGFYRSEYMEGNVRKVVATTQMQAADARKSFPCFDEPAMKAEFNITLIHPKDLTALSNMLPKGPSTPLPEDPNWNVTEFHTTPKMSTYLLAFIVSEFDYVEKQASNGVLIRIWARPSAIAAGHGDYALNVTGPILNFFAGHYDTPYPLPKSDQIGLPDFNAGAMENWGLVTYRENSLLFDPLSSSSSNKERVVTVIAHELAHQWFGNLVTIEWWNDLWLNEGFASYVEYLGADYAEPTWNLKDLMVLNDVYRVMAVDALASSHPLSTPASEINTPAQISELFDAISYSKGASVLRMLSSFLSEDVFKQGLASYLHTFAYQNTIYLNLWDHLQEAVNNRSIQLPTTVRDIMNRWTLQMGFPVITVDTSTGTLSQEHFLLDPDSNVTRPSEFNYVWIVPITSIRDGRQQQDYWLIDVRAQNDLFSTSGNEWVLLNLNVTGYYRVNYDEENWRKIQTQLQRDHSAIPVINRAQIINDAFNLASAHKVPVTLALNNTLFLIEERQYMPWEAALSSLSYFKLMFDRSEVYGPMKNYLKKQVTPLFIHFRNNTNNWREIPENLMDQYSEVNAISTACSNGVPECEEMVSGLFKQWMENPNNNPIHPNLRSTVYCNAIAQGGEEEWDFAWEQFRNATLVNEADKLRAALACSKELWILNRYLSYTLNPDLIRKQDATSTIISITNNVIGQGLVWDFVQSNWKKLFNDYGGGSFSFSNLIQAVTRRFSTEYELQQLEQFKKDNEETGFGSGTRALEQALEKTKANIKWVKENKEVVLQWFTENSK
T3 sequence (P15144 whole entry): as above
T1 sequence (P02550 whole entry): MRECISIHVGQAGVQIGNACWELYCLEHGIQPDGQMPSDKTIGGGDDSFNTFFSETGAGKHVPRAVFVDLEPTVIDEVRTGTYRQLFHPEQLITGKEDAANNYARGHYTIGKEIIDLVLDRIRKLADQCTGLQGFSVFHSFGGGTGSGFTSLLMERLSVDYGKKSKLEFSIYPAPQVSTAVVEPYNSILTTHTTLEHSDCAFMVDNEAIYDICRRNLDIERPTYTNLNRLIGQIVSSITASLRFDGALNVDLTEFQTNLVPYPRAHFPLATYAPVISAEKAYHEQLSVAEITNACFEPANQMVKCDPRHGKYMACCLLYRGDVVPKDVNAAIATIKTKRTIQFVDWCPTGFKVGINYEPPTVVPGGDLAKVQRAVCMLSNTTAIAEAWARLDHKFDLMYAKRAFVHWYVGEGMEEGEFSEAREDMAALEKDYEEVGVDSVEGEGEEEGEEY
T1 sequence (P02554 whole entry): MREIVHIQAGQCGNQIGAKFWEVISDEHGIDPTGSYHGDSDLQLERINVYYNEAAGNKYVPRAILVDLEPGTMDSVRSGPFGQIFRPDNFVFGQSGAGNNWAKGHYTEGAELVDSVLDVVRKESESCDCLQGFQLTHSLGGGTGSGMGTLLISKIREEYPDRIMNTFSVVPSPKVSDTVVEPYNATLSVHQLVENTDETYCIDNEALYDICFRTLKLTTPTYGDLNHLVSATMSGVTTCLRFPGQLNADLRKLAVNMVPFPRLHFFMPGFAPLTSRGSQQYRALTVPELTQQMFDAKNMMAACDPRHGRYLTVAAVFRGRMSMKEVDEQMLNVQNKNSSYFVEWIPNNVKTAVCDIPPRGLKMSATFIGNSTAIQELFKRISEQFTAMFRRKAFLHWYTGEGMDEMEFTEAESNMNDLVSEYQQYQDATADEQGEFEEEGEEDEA
Description for tubulin: The buffer was prepared with deionised water and the pH of the solution was adjusted to 6.6 by the drop-wise addition of 10M aq. NaOH. The buffer was stored at 4° C. prior to use.
Equipment: A Fluostar Optima 96 well plate reader equipped with a thermostat capability.
The tubulin assembly was followed by observing an increase in optical density of a tubulin solution at 350 nm at 37° C. Typically 1 ml of tubulin solution was diluted with EB (5 ml) and GTP solution (25 μl, 5 μl per ml of EB added) to the mixture. The mixture was vortexed for ten seconds in order to ensure the homogeneity of the mixture. 100 μl of the resultant solution was pipetted into a well in the 96 well plate. The increase in optical density of the tubulin solution was measured over a time course of ten minutes at 350 nm and 37° C. […] Accordingly, adjustments were made to the quantity of buffer added in order to obtain a protein concentration within the desired range. […] Tubulin solution (1000 was subsequently pipetted into each of the same three wells. The plate was immediately incubated at 37° C. and was subjected to orbital shaking for five seconds. The UV absorption was measured at 350 nm over a time course of ten minutes. The maximum slope of the resulting curve was measured. The slope of the blank represents the maximum rate of tubulin polymerisation.

In the case of `COc1ccc(C2=CC(=O)CCc3c2cc(OC)c(OC)c3OC)cc1O` [Compound 1, (Z)-8,9-dihydro-5-(3-hydroxy-4-methoxyphenyl)-1,2,3-trimethoxybenzo[7]annulen-7-one], the IC50 at tubulin was 1050 nM. The “percentage of cells in the G2/M phase” value worked out at 86.3±2.3% in the data set with HUVECs [1] (0.5 μM) and 79.35±1.7% in the data set with HUVECs [1] (1 μM).
With `COc1ccc(C2=CC(=O)CCc3c2cc(OC)c(OC)c3OC)cc1N` [Compound 28, 2-methoxy-5-(2,3,4-trimethoxy-7-oxo-6,7-dihydro-5H-benzo[7]annulen-9-yl)benzenaminium chloride], the “percentage of cells in the G2/M phase” value with HUVECs [1] (0.5 μM) is listed as 81.25±0.6%; with HUVECs [1] (1 μM) it was 76.07±4.82%.
In the case of `COc1ccc(C2=CC(=O)CCc3c2cc(OC)c(OC)c3OC)cc1OC(=O)C(CC(C)C)NC(=O)C(O)C(N)Cc1ccccc1.Cl` (centres unmarked) [Compound 44], in data set [2] (setting [5]), the inhibition at 0.1 µM was 31.9 ± 19%. Moreover, the inhibition at 1 µM in data set [2] (setting [5]) turned out to be 52.6 ± 14.7%; in data set [3] (PC-3, read-out: percentage APN inhibition, 1 μM, PC-3 cells, 2 h incubation) it was 27.8 ± 2.1%. The inhibition at 5 µM in data set [2] (setting [5]) worked out at 64 ± 16.1%; in data set [3] (PC-3, read-out: percentage APN inhibition, 5 μM, PC-3 cells, 2 h incubation), 44.6 ± 7.3%. Also, the “percentage APN inhibition” value amounted to 31.3±8.9% in data set [3] (1 μM, PC-3 cells, 2 h incubation); 51.7±8.5% in data set [3] (5 μM, PC-3 cells, 2 h incubation); 55.7±9.8% in data set [3] (10 μM, PC-3 cells, 2 h incubation); 71.4±7.5% in data set [3] (20 μM, PC-3 cells, 2 h incubation). For the same compound, the inhibition at 10 µM in data set [3] (PC-3, read-out: percentage APN inhibition, 10 μM, PC-3 cells, 2 h incubation) was determined as 63.7 ± 7.68%. For the same compound, the inhibition at 20 µM in data set [3] (PC-3, read-out: percentage APN inhibition, 20 μM, PC-3 cells, 2 h incubation) amounted to 53.4 ± 16.1%. Besides, in data set [3] (PC-3 cells), the “APN inhibition relative to bestatin” value is 2 fold.
On to `COc1ccc(C2=CC(=O)COc3c2cc(OC)c(OC)c3OC)cc1OC(=O)C(CC(C)C)NC(=O)C(O)C(N)Cc1ccccc1.Cl` (centres unmarked) [Compound 45, 2-methoxy-5-(7,8,9-trimethoxy-3-oxo-2H-1-benzoxepin-5-yl)phenyl 2-(3-amino-2-hydroxy-4-phenylbutanamido)-4-methylpentanoate], for which the inhibition at 0.1 µM in data set [2] (HUVEC, 0.1 μM, HUVECs, 2 h incubation, read-out: percentage APN inhibition) was found to be 18.1 ± 2.9%. For the same compound, the inhibition at 0.5 µM in data set [2] (HUVEC, 0.5 μM, HUVECs, 2 h incubation, read-out: percentage APN inhibition) was 21.6 ± 2.2%. The “APN inhibition relative to bestatin” value was “superior activity to that of bestatin” in data set [2] (HUVECs) and “significantly more potent APN inhibitor than bestatin” in data set [3] (PC-3 cells). Also, in data set [3] (1 μM, PC-3 cells, 2 h incubation, read-out: percentage APN inhibition), the inhibition at 1 µM worked out at 47.9 ± 1.23%. In data set [3] (5 μM, PC-3 cells, 2 h incubation, read-out: percentage APN inhibition), the inhibition at 5 µM amounted to 51.7 ± 1.38%. In data set [3] (10 μM, PC-3 cells, 2 h incubation, read-out: percentage APN inhibition), the inhibition at 10 µM came to 51.9 ± 3.89%. Also, in data set [3] (20 μM, PC-3 cells, 2 h incubation, read-out: percentage APN inhibition), the inhibition at 20 µM is 56.5 ± 3.13%. In the data set on HUVECs [4], the “cytotoxic effect on HUVECs” value is “potent cytotoxic effect”.

Source of the values: US20150018566A1, “TUBULIN BINDING AGENTS” (priority 2011, published 2015).
